Assay results published in PubChem BioAssay AID330 (DTP/NCI, 2004).
“And” between values parts separate entries of the source, which are not always exact repeats. Identical values can stand only once. Inconclusive results and toxic doses are left out. The calls were made as follows: active = survival T/C of 150% or more; inactive = T/C below 125% in these data.

Test system: P388 leukemia ip, CD2F1 mice, survival T/C
Assay: NCI In Vivo Anticancer Drug Screen. Data for tumor model P388 Leukemia (intraperitoneal) in CD2F1 (CDF1) mice
Conditions: endpoint: median survival time, higher = longer survival
Summary of the method: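 Mice carrying the transplanted tumor received test compound or vehicle. Survival was recorded in each group, and the value is the treated-group measurement divided by that of the vehicle-treated control group.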

[1] = dose: 100.0 mg/kg/injection, schedule: Q01DX009 (ip), vehicle: saline with Tween-80
[2] = dose: 100.0 mg/kg/injection, schedule: Q04DX003 (ip), vehicle: saline with Tween-80
[3] = dose: 200.0 mg/kg/injection, schedule: Q01DX009 (ip), vehicle: saline with Tween-80
[4] = dose: 200.0 mg/kg/injection, schedule: Q04DX003 (ip), vehicle: saline with Tween-80
[5] = dose: 400.0 mg/kg/injection, schedule: Q04DX003 (ip), vehicle: saline with Tween-80
[6] = dose: 50.0 mg/kg/injection, schedule: Q01DX009 (ip), vehicle: Klucel (hydroxypropylcellulose) (HPC)
[7] = dose: 100.0 mg/kg/injection, schedule: Q01DX009 (ip), vehicle: Klucel (hydroxypropylcellulose) (HPC)
[8] = dose: 200.0 mg/kg/injection, schedule: Q01DX009 (ip), vehicle: Klucel (hydroxypropylcellulose) (HPC)
[9] = dose: 25.0 mg/kg/injection, schedule: Q01DX009 (ip), vehicle: saline
[10] = dose: 50.0 mg/kg/injection, schedule: Q01DX009 (ip), vehicle: saline
[11] = dose: 100.0 mg/kg/injection, schedule: Q01DX009 (ip), vehicle: saline
[12] = dose: 60.0 mg/kg/injection, schedule: Q01DX005 (ip), vehicle: saline with Tween-80
[13] = dose: 120.0 mg/kg/injection, schedule: Q01DX005 (ip), vehicle: saline with Tween-80
[14] = dose: 60.0 mg/kg/injection, schedule: Q01DX005 (ip), vehicle: Klucel (hydroxypropylcellulose) (HPC)
[15] = dose: 120.0 mg/kg/injection, schedule: Q01DX005 (ip), vehicle: Klucel (hydroxypropylcellulose) (HPC)
[16] = dose: 240.0 mg/kg/injection, schedule: Q01DX005 (ip), vehicle: Klucel (hydroxypropylcellulose) (HPC)
[17] = dose: 25.0 mg/kg/injection, schedule: Q01DX009 (ip), vehicle: saline with Tween-80
[18] = dose: 50.0 mg/kg/injection, schedule: Q01DX009 (ip), vehicle: saline with Tween-80
[19] = dose: 6.25 mg/kg/injection, schedule: Q01DX009 (ip), vehicle: saline with Tween-80
[20] = dose: 12.5 mg/kg/injection, schedule: Q01DX009 (ip), vehicle: saline with Tween-80
[21] = dose: 6.25 mg/kg/injection, schedule: Q01DX009 (ip), vehicle: saline
[22] = dose: 12.5 mg/kg/injection, schedule: Q01DX009 (ip), vehicle: saline

Measured: T/C

Cc1cc(=O)[nH]c(N/N=C/c2ccccc2O)n1
inactive: [1] 90 % of control | [2] 90 % of control | [3] 90 % of control | [4] 90 % of control | dose: 400.0 mg/kg/injection, schedule: Q01DX009 (ip), vehicle: saline with Tween-80 90 % of control | [5] 100 % of control

Clc1nc2ccccc2nc1CI
inactive: dose: 2.66 mg/kg/injection, schedule: Q01DX009 (ip), vehicle: other 119 % of control | dose: 4.0 mg/kg/injection, schedule: Q01DX009 (ip), vehicle: other 119 % of control | dose: 6.0 mg/kg/injection, schedule: Q01DX009 (ip), vehicle: other 119 % of control | dose: 9.0 mg/kg/injection, schedule: Q01DX009 (ip), vehicle: other 114 % of control

N#CC1C(=O)NC(=S)NC1CCc1ccccc1 (stereo not given)
inactive: [6] 105 % of control | [7] 99 % of control | [8] 100 % of control

Cc1ccc(NC(=S)NC(=O)/C=C/c2ccccc2)cc1Cl
inactive: [9] 100 % of control | [10] 105 % of control | [11] 98 % of control | dose: 200.0 mg/kg/injection, schedule: Q01DX009 (ip), vehicle: saline 97 % of control

O=c1[nH]c2cc(Cl)ccc2nc1/C=C(\O)c1cccc2ccccc12
inactive: [12] 89 % of control | [13] 88 % of control | dose: 240.0 mg/kg/injection, schedule: Q01DX005 (ip), vehicle: saline with Tween-80 90 % of control

CN1CC2CCCCN2CC(Cc2ccccc2)([N+](=O)[O-])C1 (stereo not given)
inactive: dose: 100.0 mg/kg/injection, schedule: Q04DX002 (ip), vehicle: saline 109 % of control | dose: 200.0 mg/kg/injection, schedule: Q04DX002 (ip), vehicle: saline 109 % of control

CN1c2ccccc2C(C)(C)C2Nc3c(C#N)cnc(N)c3C21 (stereo not given)
inactive: dose: 50.0 mg/kg/injection, schedule: Q04DX003 (ip), vehicle: saline with Tween-80 96 % of control | [2] 105 % of control | [4] 109 % of control

c1ccc2cc3n[se]nc3cc2c1
inactive: [12] 100 % of control | [13] 90 % of control

COC(=O)[C@H]1O[C@H]1c1ccccn1
inactive: dose: 25.0 mg/kg/injection, schedule: Q01DX005 (ip), vehicle: distilled water + alcohol 103 % of control | dose: 50.0 mg/kg/injection, schedule: Q01DX005 (ip), vehicle: distilled water + alcohol 106 % of control | dose: 100.0 mg/kg/injection, schedule: Q01DX005 (ip), vehicle: distilled water + alcohol 99 % of control | dose: 200.0 mg/kg/injection, schedule: Q01DX005 (ip), vehicle: distilled water + alcohol 107 % of control

COc1ccc2c(c1OC(C)=O)C1=CC(OC(C)=O)=CCC13CCN(C)C3C2 (stereo not given)
inactive: dose: 50.0 mg/kg/injection, schedule: Q01DX005 (ip), vehicle: saline 102 % of control | dose: 100.0 mg/kg/injection, schedule: Q01DX005 (ip), vehicle: saline 111 % of control | dose: 200.0 mg/kg/injection, schedule: Q01DX005 (ip), vehicle: saline 99 % of control

COC1(OC)C(C#N)(C#N)C2(C(=O)Nc3ccccc32)C1(OC)OC (stereo not given)
inactive: [14] 97 % of control | [15] 101 % of control | [16] 103 % of control

CCCCC(CC)COC(OCC(CC)CCCC)C(OCC(CC)CCCC)OCC(CC)CCCC (stereo not given)
inactive: [2] 100 % of control | [4] 100 % of control | [5] 100 % of control

COc1cccc(CN2CCN(N=O)CC2)c1
inactive: dose: 25.0 mg/kg/injection, schedule: Q01DX009 (ip), vehicle: Klucel (hydroxypropylcellulose) (HPC) 105 % of control | [6] 97 % of control | [7] 95 % of control | [8] 105 % of control

CN(NC(=O)CC(=O)NN(C)C(=S)c1ccccc1)C(=S)c1ccccc1
inactive: dose: 12.5 mg/kg/injection, schedule: Q01DX009 (ip), vehicle: gum acacia 97 % of control | dose: 25.0 mg/kg/injection, schedule: Q01DX009 (ip), vehicle: gum acacia 115 % of control | dose: 50.0 mg/kg/injection, schedule: Q01DX009 (ip), vehicle: gum acacia 104 % of control

CC(=O)OC(C)(C)/N=N/C(C)(C)OC(C)=O
inactive: [17] 103 % of control | [18] 101 % of control | [1] 111 % of control | [3] 100 % of control

CNC(=S)NNc1ccc(Cl)nn1
inactive: dose: 100.0 mg/kg/injection, schedule: Q01DX001 (ip), vehicle: saline 96 % of control | dose: 200.0 mg/kg/injection, schedule: Q01DX001 (ip), vehicle: saline 96 % of control | dose: 400.0 mg/kg/injection, schedule: Q01DX001 (ip), vehicle: saline 102 % of control

CC(=O)C1=C(c2ccc([N+](=O)[O-])cc2)NC(=O)NC1c1ccco1 (stereo not given)
inactive: [2] 95 % of control | [4] 100 % of control | [5] 100 % of control

CCOC(=O)c1cn(CC)c2c(ccc3cnccc32)c1=O
inactive: [14] 103 % of control | [15] 100 % of control | [16] 98 % of control

Clc1ccc(N=Cc2cccs2)cc1
inactive: dose: 3.13 mg/kg/injection, schedule: Q01DX009 (ip), vehicle: saline with Tween-80 100 % of control | [19] 88 % of control | [20] 90 % of control | [17] 101 % of control | [6] 110 % of control | [7] 100 % of control | [8] 100 % of control

O=C1C2=C(OCCO2)C(=O)C2=C1OCCO2
inactive: dose: 100.0 mg/kg/injection, schedule: Q04DX002 (ip), vehicle: saline with Tween-80 99 % of control | dose: 200.0 mg/kg/injection, schedule: Q04DX002 (ip), vehicle: saline with Tween-80 111 % of control | dose: 400.0 mg/kg/injection, schedule: Q04DX002 (ip), vehicle: saline with Tween-80 106 % of control

CC[C@@]1(O)C[C@H](OC2CC(N(C)C)C(O)C(C)O2)c2c(cc3c(c2O)C(=O)c2c(O)ccc(O)c2C3=O)[C@H]1C(=O)OC (stereo not given in full)
inactive: dose: 1.56 mg/kg/injection, schedule: Q01DX009 (ip), vehicle: other 110 % of control | dose: 3.13 mg/kg/injection, schedule: Q01DX009 (ip), vehicle: other 123 % of control | dose: 6.25 mg/kg/injection, schedule: Q01DX009 (ip), vehicle: other 118 % of control

Cl/N=C(\Nc1ccccc1)c1ccccn1
inactive: [18] 105 % of control | [1] 96 % of control

CC(NNC(=S)N1CCCC1)c1ccc2ccccc2n1 (stereo not given)
inactive: dose: 50.0 mg/kg/injection, schedule: Q01DX005 (ip), vehicle: saline with Tween-80 94 % of control | dose: 100.0 mg/kg/injection, schedule: Q01DX005 (ip), vehicle: saline with Tween-80 94 % of control | dose: 200.0 mg/kg/injection, schedule: Q01DX005 (ip), vehicle: saline with Tween-80 94 % of control

COc1ccc(C[n+]2cc([O-])on2)cc1
inactive: [19] 100 % of control | [20] 100 % of control | [17] 100 % of control and 104 % of control and 95 % of control | [18] 122 % of control | dose: 66.0 mg/kg/injection, schedule: Q01DX009 (ip), vehicle: saline with Tween-80 118 % of control and 122 % of control

OC1(c2ccccc2)c2cccc(Cl)c2C(O)(c2ccccc2)c2c(Cl)cccc21 (stereo not given)
inactive: [18] 99 % of control | [1] 99 % of control | [3] 97 % of control

NS(=O)(=O)c1ccc2c(=O)c(C(=O)O)c[nH]c2c1
inactive: dose: 1.56 mg/kg/injection, schedule: Q01DX009 (ip), vehicle: saline 98 % of control | dose: 3.12 mg/kg/injection, schedule: Q01DX009 (ip), vehicle: saline 92 % of control | [21] 92 % of control | [10] 101 % of control | [11] 96 % of control

CCOC(=O)C[n+]1cccc(S(=O)(=O)NC)c1
inactive: [22] 94 % of control | [9] 94 % of control | [10] 93 % of control

O=N[O-].O=N[O-].[NH2-].[NH2-].[NH2-].[NH2-].[Ni]
inactive: [21] 100 % of control | [22] 105 % of control

CC(=O)N1C(=O)C2C3C=CC(C3)C2C(=O)N1C(C)=O (stereo not given)
inactive: [19] 96 % of control | [20] 97 % of control | [17] 102 % of control | [18] 106 % of control and 86 % of control
